Measurements taken from patent US20230285282A1, “OCULAR IMPLANT CONTAINING AN ACTIVE INGREDIENT” (OCULAR THERAPEUTIX, INC., priority 2020, published 2023).
Converted amounts (≈) assume the structure as drawn. Where two headings read alike, the source gives them in different places.

Experiments:
[1] = cited from earlier work
CYP3A4/5 = details: cited from earlier work
physchem = details: PBS, 37 °C, pH 7.2, aqueous buffer
vascular leakage = assay: VEGF challenge, vascular leakage scored by fluorescein angiography; format: in vivo, Dutch belted rabbits
Procedure: For efficacy studies, 12 animals (with and without the implant) received an […] VEGF challenge (1 μg) 48 hours prior to selected time points (1, 2, 3, and 6 months after implant injection; 3 animals euthanized at each time point) to induce vascular proliferation and leakage. Rabbits were followed for 6 months from the administration of the implant. Eyes were imaged 48 hours post VEGF challenge using fluorescein angiography (FA) after intravenous injection of fluorescein and were graded on a scale from 0 to 4 (Table 9). Each eye was scored on the left and right side to account for non-uniformity in inflammatory response. FA scores were then averaged for each eye.
Animals from each group were […] challenged with VEGF (1 μg) 48 hours prior to selected time points (0.5, 1, 3, 6, 9, 12, 14, 16, 19, 20, and 21 months) to induce vascular proliferation and leakage. Eyes were imaged 48 hours post VEGF challenge time-points using fluorescein angiography (FA) and were graded on a scale from 0 (normal) to 4 (severe leakage) as described under Example 3.2.

[2] = 1.25 mg intravitreal, rabbits; cited from earlier work

For CNC(=O)c1ccccc1Sc1ccc2c(/C=C/c3ccccn3)n[nH]c2c1 [axitinib, N-methyl-2-[3-((E)-2-pyridin-2-yl-vinyl)-1H-indazol-6-ylsulfanyl]-benzamide], the “clearance half-life (t1/2)” value ([1]; Rugo et al. 2005) is given as “a few hours”, the “axitinib exposure (Cmax)” value (CYP3A4/5; co-administration with oral ketoconazole) is given as “increased” and the “axitinib exposure (Cmax)” value (CYP3A4/5; co-administration with rifamycin) is given as “decreased”. It also gave a solubility (physchem) of 0.4 to 0.5 µg/mL (≈ 1.03 to 1.29 µM).

For Avastin®: anti-VEGF therapeutic, the “duration of effect post injection” value (vascular leakage; 1.25 mg Avastin only) is given as no more than 3 months, the “vascular leakage after VEGF challenge” value (vascular leakage; 1.25 mg Avastin only (group 3)) is given as “after 3 months vascular leakage re-occurred” and the half-life [2] is given as 158 h.

For aflibercept: anti-VEGF agent, the “t1/2 in the human eye” value [1] is listed as “several days”.

In the case of ranibizumab: anti-VEGF agent, the “t1/2 in the human eye” value [1] is listed as “several days”.
